The compounds below were run against T1, full-length ATR (Homo sapiens, UniProt Q13535) (assay: ATR Inhibition Assay (radioactive-phosphate incorporation)). Settings: Ki(app); 10 μM ATP, 800 μM target peptide, 5 nM full-length ATR, 25° C.
T1 construct: Assays were carried out at 25° C. in the presence of 5 nM full-length ATR
Format: biochemical
Protocol: Compounds were screened for their ability to inhibit ATR kinase using a radioactive-phosphate incorporation assay. Assays were carried out in a mixture of 50 mM Tris/HCl (pH 7.5), 10 mM MgCl2 and 1 mM DTT. Final substrate concentrations were 10 μM [γ-33P]ATP (3 mCi 33P ATP/mmol ATP, Perkin Elmer) and 800 μM target peptide ([…] (SEQ. ID NO: 1)).
Assays were carried out at 25° C. in the presence of 5 nM full-length ATR. An assay stock buffer solution was prepared containing all of the reagents listed above, with the exception of ATP and the test compound of interest. 13.5 μL of the stock solution was placed in a 96 well plate followed by addition of 2 μL of DMSO stock containing serial dilutions of the test compound (typically starting from a final concentration of 15 μM with 3-fold serial dilutions) in duplicate (final DMSO concentration 7%). The plate was pre-incubated for 10 minutes at 25° C. and the reaction initiated by addition of 15 μL [γ-33P]ATP (final concentration 10 μM).
The reaction was stopped after 24 hours by the addition of 30 μL 0.1M phosphoric acid containing 2 mM ATP. A multiscreen phosphocellulose filter 96-well plate (Millipore, Cat no. MAPHN0B50) was pretreated with 100 μL 0.2M phosphoric acid prior to the addition of 45 μL of the stopped assay mixture. The plate was washed with […] 0.2M phosphoric acid. After drying, 100 μL Optiphase ‘SuperMix’ liquid scintillation cocktail (Perkin Elmer) was added to the well prior to scintillation counting (1450 Microbeta Liquid Scintillation Counter, Wallac).
After removing mean background values for all of the data points, Ki(app) data were calculated from non-linear regression analysis of the initial rate data using the Prism software package (GraphPad Prism version 3.0cx for Macintosh, GraphPad Software, San Diego Calif., USA).

T1 sequence (Q13535 whole entry): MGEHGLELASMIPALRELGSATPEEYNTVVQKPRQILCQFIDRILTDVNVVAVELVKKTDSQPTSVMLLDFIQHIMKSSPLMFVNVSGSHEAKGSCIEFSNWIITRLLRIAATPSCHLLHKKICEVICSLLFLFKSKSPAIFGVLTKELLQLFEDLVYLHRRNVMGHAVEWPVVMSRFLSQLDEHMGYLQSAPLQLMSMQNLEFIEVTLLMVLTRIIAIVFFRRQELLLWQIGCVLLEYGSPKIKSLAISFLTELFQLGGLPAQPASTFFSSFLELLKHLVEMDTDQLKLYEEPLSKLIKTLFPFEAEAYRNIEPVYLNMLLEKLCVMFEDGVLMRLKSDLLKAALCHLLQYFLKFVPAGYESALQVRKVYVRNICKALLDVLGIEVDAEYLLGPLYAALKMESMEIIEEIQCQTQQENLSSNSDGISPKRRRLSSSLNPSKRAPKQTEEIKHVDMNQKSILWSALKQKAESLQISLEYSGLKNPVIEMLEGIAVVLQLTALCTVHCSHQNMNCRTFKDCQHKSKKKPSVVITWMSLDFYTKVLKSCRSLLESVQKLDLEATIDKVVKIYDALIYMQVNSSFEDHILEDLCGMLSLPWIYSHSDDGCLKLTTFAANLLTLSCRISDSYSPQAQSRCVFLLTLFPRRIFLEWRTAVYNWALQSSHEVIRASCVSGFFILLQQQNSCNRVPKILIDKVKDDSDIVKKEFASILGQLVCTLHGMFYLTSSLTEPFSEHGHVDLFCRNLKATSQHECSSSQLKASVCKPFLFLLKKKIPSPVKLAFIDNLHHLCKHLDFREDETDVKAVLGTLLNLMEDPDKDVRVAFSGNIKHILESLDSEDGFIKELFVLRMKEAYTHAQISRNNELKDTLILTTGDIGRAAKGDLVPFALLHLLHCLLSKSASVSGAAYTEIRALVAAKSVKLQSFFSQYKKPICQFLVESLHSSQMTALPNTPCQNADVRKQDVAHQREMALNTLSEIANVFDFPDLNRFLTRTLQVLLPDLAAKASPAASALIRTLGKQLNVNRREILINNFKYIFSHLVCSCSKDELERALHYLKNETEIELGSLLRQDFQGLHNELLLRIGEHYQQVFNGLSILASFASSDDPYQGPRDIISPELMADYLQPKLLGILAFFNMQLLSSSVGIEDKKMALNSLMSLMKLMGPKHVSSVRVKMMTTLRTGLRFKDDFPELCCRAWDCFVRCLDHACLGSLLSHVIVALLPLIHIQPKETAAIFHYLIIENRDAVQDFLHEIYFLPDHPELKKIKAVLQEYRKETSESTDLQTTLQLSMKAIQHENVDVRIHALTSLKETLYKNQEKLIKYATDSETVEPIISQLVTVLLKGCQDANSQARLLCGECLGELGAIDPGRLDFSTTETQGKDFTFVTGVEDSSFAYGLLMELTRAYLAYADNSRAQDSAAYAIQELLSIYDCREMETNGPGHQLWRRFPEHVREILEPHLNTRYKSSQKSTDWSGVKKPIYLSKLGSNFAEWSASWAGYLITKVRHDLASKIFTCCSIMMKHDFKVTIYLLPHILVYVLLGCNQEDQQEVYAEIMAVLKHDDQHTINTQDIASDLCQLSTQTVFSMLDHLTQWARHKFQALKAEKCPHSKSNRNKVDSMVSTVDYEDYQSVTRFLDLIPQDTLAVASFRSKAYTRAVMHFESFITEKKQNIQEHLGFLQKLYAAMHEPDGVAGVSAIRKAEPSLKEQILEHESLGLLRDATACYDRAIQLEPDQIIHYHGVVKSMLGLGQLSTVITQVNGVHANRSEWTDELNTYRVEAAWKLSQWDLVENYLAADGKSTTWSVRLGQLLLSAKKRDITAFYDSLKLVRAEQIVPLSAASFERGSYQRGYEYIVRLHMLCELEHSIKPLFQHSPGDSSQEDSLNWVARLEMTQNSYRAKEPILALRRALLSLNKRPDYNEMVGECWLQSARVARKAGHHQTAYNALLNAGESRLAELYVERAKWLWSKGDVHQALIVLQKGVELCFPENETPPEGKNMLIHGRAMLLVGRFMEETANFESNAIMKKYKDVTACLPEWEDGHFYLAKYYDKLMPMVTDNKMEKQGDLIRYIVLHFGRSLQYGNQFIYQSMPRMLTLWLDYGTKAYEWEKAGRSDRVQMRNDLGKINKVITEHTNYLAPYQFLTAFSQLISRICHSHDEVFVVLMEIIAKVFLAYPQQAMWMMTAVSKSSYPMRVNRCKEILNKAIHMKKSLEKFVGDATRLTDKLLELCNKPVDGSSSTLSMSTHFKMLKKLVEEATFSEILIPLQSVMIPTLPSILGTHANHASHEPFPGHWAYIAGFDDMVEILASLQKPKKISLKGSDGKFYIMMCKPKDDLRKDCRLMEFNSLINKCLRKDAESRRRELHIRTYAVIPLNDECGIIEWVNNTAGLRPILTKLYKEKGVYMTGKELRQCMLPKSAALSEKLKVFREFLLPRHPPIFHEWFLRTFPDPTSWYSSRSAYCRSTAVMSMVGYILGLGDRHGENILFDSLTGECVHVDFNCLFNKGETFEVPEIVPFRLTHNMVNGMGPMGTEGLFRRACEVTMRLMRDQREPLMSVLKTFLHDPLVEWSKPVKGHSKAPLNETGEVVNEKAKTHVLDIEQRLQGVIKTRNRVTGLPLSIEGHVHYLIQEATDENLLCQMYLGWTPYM

Row | Ki [nM] | Structure (SMILES)
1 | 1000 to 8000 | CCN(CC)C(=O)c1cnc(N)c(-c2nc3ccc(C)cc3[nH]2)n1 [II-46, 5-Amino-N,N-diethyl-6-(6-methyl-1H-benzimidazol-2-yl)pyrazine-2-carboxamide]
2 | 1000 to 8000 | Cc1ccc2nc(-c3nc(C#CCN(C)C)cnc3N)[nH]c2c1 [II-84, 5-[3-(Dimethylamino)prop-1-ynyl]-3-(6-methyl-1H-benzimidazol-2-yl)pyrazin-2-amine]
3 | ≤ 500 | Cc1ccc2nc(-c3nc(C(=O)NCC4CCCC4)cnc3N)[nH]c2c1 [II-49, 5-Amino-N-(cyclopentylmethyl)-6-(6-methyl-1H-benzimidazol-2-yl)pyrazine-2-carboxamide]
4 | ≤ 500 | CC(=O)Nc1cnc(N)c(-c2nc3ccccc3[nH]2)n1 [II-91, N-[5-Amino-6-(1H-benzimidazol-2-yl)pyrazin-2-yl]acetamide]
5 | 500 to 1000 | Cc1ccc2nc(-c3nc(Oc4ccccc4C#N)cnc3N)[nH]c2c1 [II-20, 2-[5-Amino-6-(6-methyl-1H-benzimidazol-2-yl)pyrazin-2-yl]oxybenzonitrile]
6 | ≤ 500 | Nc1ncc(Nc2cccc(F)c2)nc1C(=O)Nc1ccccc1 [II-4, 3-Amino-6-(3-fluoroanilino)-N-phenyl-pyrazine-2-carboxamide]
7 | ≤ 500 | CC(=O)NCC#Cc1cnc(N)c(-c2nc3ccc(C)cc3[nH]2)n1 [II-88, N-[3-[5-amino-6-(6-methyl-1H-benzimidazol-2-yl)pyrazin-2-yl]prop-2-ynyl]acetamide]
8 | 500 to 1000 | Cc1ccc2nc(-c3nc(C(=O)N(C)c4ccccc4)cnc3N)[nH]c2c1 [II-44, 5-Amino-N-methyl-6-(6-methyl-1H-benzimidazol-2-yl)-N-phenyl-pyrazine-2-carboxamide]
9 | 1000 to 8000 | Cc1ccc2nc(-c3nc(Oc4ccc(O)cc4)cnc3N)[nH]c2c1 [II-24, 4-[5-Amino-6-(6-methyl-1H-benzimidazol-2-yl)pyrazin-2-yl]oxyphenol]
10 | ≤ 500 | Cc1ccc2nc(-c3nc(C(=O)N4CCC4)cnc3N)[nH]c2c1 [II-60, [5-Amino-6-(6-methyl-1H-benzimidazol-2-yl)pyrazin-2-yl]-(azetidin-1-yl)methanone]
11 | 500 to 1000 | Cc1ccc2nc(-c3nc(C(=O)NCCN4CCCC4)cnc3N)[nH]c2c1 [II-51, 5-Amino-6-(6-methyl-1H-benzimidazol-2-yl)-N-(2-pyrrolidin-1-ylethyl)pyrazine-2-carboxamide]
12 | 1000 to 8000 | Cc1ccc2nc(-c3nc(C(=O)NCC(=O)C(C)(C)C)cnc3N)[nH]c2c1 [II-62, 5-Amino-N-(3,3-dimethyl-2-oxo-butyl)-6-(6-methyl-1H-benzimidazol-2-yl)pyrazine-2-carboxamide]
13 | 500 to 1000 | Cc1ccc2nc(-c3nc(C(=O)N[C@@H](C)c4ccccc4)cnc3N)[nH]c2c1 [II-59, 5-Amino-6-(6-methyl-1H-benzimidazol-2-yl)-N-[(1S)-1-phenylethyl]pyrazine-2-carboxamide]
14 | 500 to 1000 | Cc1ccc2nc(-c3nc(C(=O)NCCC(F)(F)F)cnc3N)[nH]c2c1 [II-73, 5-Amino-6-(6-methyl-1H-benzimidazol-2-yl)-N-(3,3,3-trifluoropropyl)pyrazine-2-carboxamide]
15 | 1000 to 8000 | CC(=O)NCCOc1cnc(N)c(-c2nc3ccc(C)cc3[nH]2)n1 [II-34, N-[2-[5-Amino-6-(6-methyl-1H-benzimidazol-2-yl)pyrazin-2-yl]oxyethyl]acetamide]
16 | 1000 to 8000 | Cc1ccc2nc(-c3nc(/C=C/Cc4ccccc4)cnc3N)[nH]c2c1
17 | ≤ 500 | N#CCNC(=O)c1cnc(N)c(-c2nc3ccccc3[nH]2)n1 [II-75, 5-Amino-6-(1H-benzimidazol-2-yl)-N-(cyanomethyl)pyrazine-2-carboxamide]
18 | 500 to 1000 | Cc1ccc2nc(-c3nc(C(=O)NCc4cccnc4)cnc3N)[nH]c2c1 [II-70, 5-Amino-6-(6-methyl-1H-benzimidazol-2-yl)-N-(3-pyridylmethyl)pyrazine-2-carboxamide]

Row | Ki [nM] | Structure (SMILES)
19 | ≤ 500 | Cc1ccc2nc(-c3nc(C(=O)NCC4CCCO4)cnc3N)[nH]c2c1 (centres unmarked) [II-52, 5-Amino-6-(6-methyl-1H-benzimidazol-2-yl)-N-(tetrahydrofuran-2-ylmethyl)pyrazine-2-carboxamide]
20 | ≤ 500 | COC(=O)CNC(=O)c1cnc(N)c(-c2nc3ccc(C)cc3[nH]2)n1 [II-55, Methyl 2-[[5-amino-6-(6-methyl-1H-benzimidazol-2-yl)pyrazine-2-carbonyl]amino]acetate]
21 | 1000 to 8000 | Cc1ccc2nc(-c3nc(Oc4ccc(F)cc4)cnc3N)[nH]c2c1 [II-23, 5-(4-Fluorophenoxy)-3-(6-methyl-1H-benzimidazol-2-yl)pyrazin-2-amine]
22 | 500 to 1000 | Cc1ccc2nc(-c3nc(OC4CCOC4)cnc3N)[nH]c2c1 (centres unmarked) [II-32, 3-(6-Methyl-1H-benzimidazol-2-yl)-5-tetrahydrofuran-3-yloxy-pyrazin-2-amine]
23 | ≤ 500 | Cc1ccc2nc(-c3nc(C#CCN4CCS(=O)(=O)CC4)cnc3N)[nH]c2c1 [II-85, 5-[3-(1,1-Dioxo-1,4-thiazinan-4-yl)prop-1-ynyl]-3-(6-methyl-1H-benzimidazol-2-yl)pyrazin-2-amine]
24 | ≤ 500 | Cc1ccc2nc(-c3nc(Oc4ccc(C(=O)O)cc4)cnc3N)[nH]c2c1 [II-26, 4-[5-Amino-6-(6-methyl-1H-benzimidazol-2-yl)pyrazin-2-yl]oxybenzoic acid]
25 | ≤ 500 | Nc1ncc(Nc2ccncc2)nc1C(=O)Nc1ccccc1 [II-6, 3-Amino-N-phenyl-6-(4-pyridylamino)pyrazine-2-carboxamide]
26 | 1000 to 8000 | C=CCNC(=O)c1cnc(N)c(-c2nc3ccc(C)cc3[nH]2)n1 [II-66, N-Allyl-5-amino-6-(6-methyl-1H-benzimidazol-2-yl)pyrazine-2-carboxamide]
27 | 1000 to 8000 | Cc1ccc2nc(-c3nc(C(=O)NC(C)c4ccccc4)cnc3N)[nH]c2c1 (stereo in doubt) [II-57, 5-Amino-6-(6-methyl-1H-benzimidazol-2-yl)-N-[(1R)1-phenylethyl]pyrazine-2-carboxamide]
28 | 500 to 1000 | Nc1ncc(Oc2ccccc2)nc1C(=O)Nc1ccccc1 [II-17, 3-Amino-6-phenoxy-N-phenyl-pyrazine-2-carboxamide]
29 | 500 to 1000 | Cc1ccc2nc(-c3nc(C(=O)Nc4cccnc4)cnc3N)[nH]c2c1 [II-42, 5-Amino-6-(6-methyl-1H-benzimidazol-2-yl)-N-(3-pyridyl)pyrazine-2-carboxamide]
30 | ≤ 500 | Nc1ncc(Nc2ccccc2)nc1C(=O)Nc1ccccc1 [II-1, 3-Amino-6-anilino-N-phenyl-pyrazine-2-carboxamide]
31 | ≤ 500 | Cc1ccc2nc(-c3nc(C(=O)NCCC#N)cnc3N)[nH]c2c1 [II-77, 5-Amino-N-(2-cyanoethyl)-6-(6-methyl-1H-benzimidazol-2-yl)pyrazine-2-carboxamide]
32 | 500 to 1000 | Cc1ccc2nc(-c3nc(Oc4cccnc4)cnc3N)[nH]c2c1 [II-29, 3-(6-Methyl-1H-benzimidazol-2-yl)-5-(3-pyridyloxy)pyrazin-2-amine]
33 | ≤ 500 | N#Cc1cccc(Oc2cnc(N)c(-c3nc4ccccc4[nH]3)n2)c1 [II-10, 3-[5-Amino-6-(1H-benzimidazol-2-yl)pyrazin-2-yl]oxybenzonitrile]
34 | 1000 to 8000 | Nc1ncc(OCCO)nc1-c1nc2ccccc2[nH]1 [II-14, 2-[5-Amino-6-(1H-benzimidazol-2-yl)pyrazin-2-yl]oxyethanol]
35 | ≤ 500 | Cc1ccc2nc(-c3nc(C(=O)NCc4ccc(F)cc4)cnc3N)[nH]c2c1 [II-64, 5-Amino-N-[(4-fluorophenyl)methyl]-6-(6-methyl-1H-benzimidazol-2-yl)pyrazine-2-carboxamide]

Same assay, conditions: at 15 uM compound; read-out: percent inhibition against ATR

Row | inhibition at 15 µM [%] | Structure (SMILES)
36 | 25 to 45 | Cc1ccc2nc(-c3nc(OCCN4CCCCC4)cnc3N)[nH]c2c1 [II-27, 3-(6-Methyl-1H-benzimidazol-2-yl)-5-[2-(1-piperidyl)ethoxy]pyrazin-2-amine]
37 | 15 to 24 | Cc1ccc2nc(-c3nc(C(=O)NC4CCCC4)cnc3N)[nH]c2c1 [II-72, 5-Amino-N-cyclopentyl-6-(6-methyl-1H-benzimidazol-2-yl)pyrazine-2-carboxamide]
38 | 15 to 24 | Cc1ccc2nc(-c3nc(Oc4cccc(C#N)c4)cnc3N)[nH]c2c1 [II-31, 3-[5-Amino-6-(6-methyl-1H-benzimidazol-2-yl)pyrazin-2-yl]oxybenzonitrile]

Same assay, conditions: at 30 uM compound; read-out: percent inhibition against ATR

Row | inhibition at 30 µM [%] | Structure (SMILES)
39 | 40 to 50 | Cc1ccc2nc(-c3nc(Oc4ccccc4Cl)cnc3N)[nH]c2c1 [II-21, 5-(2-Chlorophenoxy)-3-(6-methyl-1H-benzimidazol-2-yl)pyrazin-2-amine]
40 | 40 to 50 | Nc1ncc(Sc2cccc(F)c2)nc1-c1nc2ccccc2[nH]1 [II-40, 3-(1H-Benzimidazol-2-yl)-5-(3-fluorophenyl)sulfanyl-pyrazin-2-amine]

Same assay, conditions: at 60 uM compound; read-out: percent inhibition of ATR

Row | inhibition at 60 µM [%] | Structure (SMILES)
41 | 10 | Cc1ccc2nc(-c3nc(Oc4cccc(Oc5ccccc5)c4)cnc3N)[nH]c2c1 [II-28, 3-(6-Methyl-1H-benzimidazol-2-yl)-5-(3-phenoxyphenoxy)pyrazin-2-amine]

Source: patent US8962631B2 (Vertex Pharmaceuticals Incorporated, priority 2010, dated 2015)
